Test systems include SF-539; OVCAR-3; COLO 205; HOP-62; NCI-H460; UO-31; UACC-257; HCT-15; CCRF-CEM; HCC 2998; IGROV-1; NCI-H522; NCI-H23; U-251; HL-60; K562; CAKI-1.
Test in all cases: NCI-60 cell line screen, 48 h

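The compound was tested at five concentrations on cells cultured in 96-well plates, with a 48-hour exposure period. The concentration for 50% growth inhibition is given as GI50.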 Activity calls are given as the source filed them. Rule as the data show it: active = GI50 up to about 1.1 µM and inactive = higher.

As for `CCCCCCCCCCCCCCCC(=O)NCC(OCC)OCC`, the GI50 in the assay with SF-539, with OVCAR-3, in the assay on COLO 205, in the assay on HOP-62, in the assay with NCI-H460 and in the assay on UO-31 was > 100 µM (inactive) each time. The GI50 is > 100 µM (inactive) in the assay on UACC-257; over 100 µM in the assay on HCT-15; > 100 µM (inactive) in the assay on CCRF-CEM; > 100 µM (inactive) with HCC 2998; > 100 µM (inactive) in the assay with IGROV-1; > 100 µM (inactive) in the assay with NCI-H522. Besides, the GI50 with NCI-H23, in the assay on U-251 and in the assay on HL-60 was > 100 µM (inactive) throughout.

For the compound `O=C1OC2(OC2c2ccccc2)c2ccccc21` (centres undefined), the GI50 with SF-539, in the assay with OVCAR-3, in the assay on COLO 205, with K562, with HOP-62 and in the assay with NCI-H460 was > 100 µM (inactive) throughout. The GI50 in the assay on UO-31 was > 100 µM (inactive); in the assay with UACC-257, > 100 µM (inactive); in the assay with HCT-15 it was over 100 µM; with CCRF-CEM, > 100 µM (inactive); in the assay with HCC 2998, > 100 µM (inactive); with IGROV-1, > 100 µM (inactive). Also, the GI50 in the assay on NCI-H522, in the assay with NCI-H23, in the assay on U-251 and with HL-60 was > 100 µM (inactive) throughout.

As for `N#C/N=C1\NC(Cc2ccccc2)C(=O)N1CCc1c[nH]c2ccccc12` (centres undefined), the GI50 with SF-539 is 29.6 µM (inactive); in the assay with OVCAR-3, 33.6 µM (inactive); in the assay with COLO 205, 19.7 µM (inactive); with K562, 23.9 µM (inactive); with HOP-62 it was 28.1 µM (inactive); in the assay on UO-31 it was 24 µM (inactive). For the same compound, the GI50 in the assay with UACC-257 is 43.6 µM (inactive); in the assay on HCT-15, 29.4 µM; in the assay with CCRF-CEM, 25.5 µM (inactive); in the assay with HCC 2998, 19.8 µM (inactive); in the assay on IGROV-1, 31.8 µM (inactive); in the assay on NCI-H23, 35.7 µM (inactive). Also, in the assay on HL-60, the GI50 is 22.1 µM (inactive).

For `CC(C)NC(=O)OCc1nnn2c1C(OC(=O)NC(C)C)CC2` (centres undefined), the GI50 in the assay on SF-539, in the assay on OVCAR-3, in the assay with COLO 205, in the assay on K562, in the assay with NCI-H460 and in the assay on UO-31 was > 100 µM (inactive) each time. Besides, the GI50 with UACC-257 was > 100 µM (inactive); in the assay on HCT-15 it was over 100 µM; in the assay with CAKI-1, > 100 µM (inactive); with HCC 2998, > 100 µM (inactive); in the assay with IGROV-1, > 100 µM (inactive); in the assay on NCI-H522 it was > 100 µM (inactive). For the same compound, the GI50 with NCI-H23 and in the assay with U-251 was > 100 µM (inactive) each time.

Take `COc1ccc2c(c1)CN1CCc3c(cc(OC)c(OC)c3OC)C1C2` (centres undefined): the GI50 in the assay with SF-539 is > 100 µM (inactive); with OVCAR-3, > 100 µM (inactive); in the assay on COLO 205 it was > 100 µM (inactive); with K562, 57.5 µM (inactive); in the assay on HOP-62, > 100 µM (inactive); with UO-31, > 100 µM (inactive). Besides, the GI50 was > 100 µM (inactive) with UACC-257; over 100 µM with HCT-15; 74.6 µM (inactive) in the assay on CCRF-CEM; > 100 µM (inactive) in the assay on CAKI-1; > 100 µM (inactive) with HCC 2998; > 100 µM (inactive) in the assay with IGROV-1. The GI50 was > 100 µM (inactive) in the assay with NCI-H522, > 100 µM (inactive) with NCI-H23, > 100 µM (inactive) in the assay with U-251 and 41.5 µM (inactive) in the assay on HL-60.

The record behind these values is ChEMBL document CHEMBL1201862, “PubChem BioAssay data set” (2004).
